The values below come from publication PMC6589951 (Therapeutic Advances in Medical Oncology, 2019).

By IC50 is commonly meant the concentration that gives 50% inhibition.

For data set [1], the system named is patients with advanced solid tumors. Nature of the data set: exposure, dosing compliance and actions taken with study drug. In kind it is in vivo, human.
Data set [2] deals with CD14dim/CD16+ monocytes. The data set is described as follows: blood CD14dim/CD16+ monocyte levels. The settings on record: doses as low as 800 mg daily. In kind it is in vivo, human.
Data set [3] deals with PVNS/TGCT. The settings on record: 1000 mg daily; cited from earlier work.
For data set [4], the system named is patients with advanced solid tumors. The data set is described as follows: phase Ib dose escalation 3+3: DLT, MTD, RP2D. In kind it is in vivo, human.
Data set [5] deals with mammary carcinoma. The settings on record: mouse model of mammary carcinoma, cited from earlier work.
Data set [6] deals with CSF-1R. The settings on record: read-out: IC50 CSF-1R; ref Investigator's Brochure, 14; cited from earlier work.
The subject of data set [7] is osteoclast precursors. To be noted: RANK-L and CSF-1 dependent manner; ref Investigator's Brochure, 14; cited from earlier work.
Data set [8] is described as follows: pexidartinib plasma pharmacokinetics, cycle 1 day 15. Format: in vivo, human. To be noted: day 15, steady state.

The structures appear in SMILES notation. Entries after “also recorded” stand apart in the source; their conditions may differ.

Turning to `CC(=O)O[C@H]1C(=O)[C@@]2(C)[C@H]([C@H](OC(=O)c3ccccc3)[C@]3(O)C[C@H](OC(=O)[C@H](O)[C@@H](NC(=O)c4ccccc4)c4ccccc4)C(C)=C1C3(C)C)[C@]1(OC(C)=O)CO[C@@H]1C[C@@H]2O` [paclitaxel, reference compound], the “patients with paclitaxel dose reductions” value in data set [1] (Eight patients) worked out at 15%. In data set [1] (in vivo), the “omitted paclitaxel doses with AEs as reason” value is reported as 54% and the “patients with paclitaxel temporarily withheld” value came to 39%.
On to `FC(F)(F)c1ccc(CNc2ccc(Cc3c[nH]c4ncc(Cl)cc34)cn2)cn1` [pexidartinib], for which the “reduction of CD14dim/CD16+ monocytes in the peripheral blood” value in data set [2] was “near complete reduction”. Moreover, in data set [3], the “Median PFS” value is given as “not reached” and the “time in which PRs occurred” value is given as […]. Also, the “recommended phase II dose (RP2D)” value in data set [4] (pexidartinib in combination with weekly paclitaxel 80 mg/m^2) amounted to […]. Further, the maximum tolerated dose entry in data set [4] (pexidartinib up to 1600 mg/day with weekly paclitaxel) was “no maximum tolerated dose was achieved; also recorded: No maximum tolerated dose was determined; also recorded: No maximum tolerated dose was reached”. Moreover, in data set [1] (in vivo), the “dose reductions as an immediate action following pexidartinib-related AE” value came to […], the “patients missing doses of pexidartinib due to AEs of any cause” value was […], the “patients with dose modifications of pexidartinib” value was found to be […] and the “patients with pexidartinib dose reductions” value is […]. For the same compound, in data set [5] (following chemotherapy), the “survival of study animals” value is “improved survival” and the tumor growth result is “slower tumor growth”. In addition, the “TAM recruitment following chemotherapy” value in data set [5] is reported as “abrogate TAM recruitment”. The IC50 in data set [6] is […]. The “differentiation of osteoclast precursors” value in data set [7] is listed as “inhibit differentiation”. In addition, the “dose at which pexidartinib plasma concentration and exposure reached saturation” value in data set [8] was […].
